The source of these data is patent publication US10799442B2, “Compounds useful in the treatment and/or care of the skin, hair, nails, and/or mucous membranes” (LUBRIZOL ADVANCED MATERIALS, INC., priority 2015, dated 2020).

[ ]: non-standard residue; d: D form. The star is where a group is joined. Palmitoyl = CCCCCCCCCCCCCCCC(=O)*; NHhexadecyl = CCCCCCCCCCCCCCCCN*; Myristoyl = CCCCCCCCCCCCCC(=O)*; Orn = NCCC[C@H](N)C(=O)O; NHHex = CCCCCCN*

The test system of the experiment is human miRNA145. The experiment is described as follows: miRNA145 inhibition on Human Keratinocyte HaCaT cell line, direct quantification by luminescence. It is filed as cell-based. The following applies: HaCaT cells, 0.3 mg/ml, 24 hours, normalized with Snord48; mean of 3 experiments for DD14024, one experiment for the others. Here is the method: The synthetic peptide candidates are evaluated for the inhibition of human miRNA145 expression level using a direct miRNA145 quantification assay based on luminescence detection in a Human Keratinocyte HaCaT cell line.
HaCat cells (Deutsches Krebsforschungszentrum) are seeded at 3.0×10^4 cells/well in 96-clear wells plates and incubated in a culture medium [(DMEM High Glucose with L-Glutamine (Lonza), supplemented with 10% Fetal Bovine Serum (Cultek)] for 24 hours at 37° C. in a water-saturated atmosphere of 95% air and 5% CO2. Then, the cells with the candidates added at 0.3 mg/ml in the culture medium are treated for 24 hours at 37° C., 95% air and 5% CO2. Cells with culture medium only are treated to the same conditions to provide basal conditions. Each cell culture condition is assayed at least in 6 biological replicates. At the end of the incubation period, the cells are lysed and the relative miRNA145 expression level is quantified by a specific assay kit (QuantiGene™ 2.0 miRNA Assay Kit) following manufacturer's instructions (Affymetrix). Briefly, to capture miRNA145, culture lysates are incubated overnight at 46±1° C. in 96-white well plates with the miRNA145 specific probe set (Capture extenders and Label extenders). As an endogenous expression control, the housekeeping Snord48 is quantified using a specific probe set. Next day, the signal amplification tree is built via sequential hybridization at 46±1° C. of three probes: PreAmplifier, Amplifier and Alkaline Phosphatase Label Probe. Then, the signal is detected by adding a chemiluminescent substrate and using a Microplate Luminometer Reader (Clariostar-BMG LabTech).
The miRNA145 expression level result is normalized with the Snord48 expression level for each cell culture condition and the relative decrease in the miRNA145 expression level is calculated respect to basal control (cells treated with culture medium only). The values represent the mean of 3 independent experiments for DD14024, and for the other candidates, represent the result of one experiment.
On to “Ac-Gln-Glu-Met-Arg-Met-Gln-Tyr-OH (Ac-QEMRMQY-OH) [DD15046]”, for which the “Relative level of miRNA145 respect to basal control (%)” value (“Relative level … (%)” below) is on record as 74.02 ± 1.98%.
For the substance “Ac-Pro-Val-Gln-Glu-Met-Arg-Met-Gln-OH (Ac-PVQEMRMQ-OH) [DD15048]”, the “Relative level … (%)” value is recorded as 89.54 ± 3.79%.
Turning to “Ac-Gln-Glu-Met-Lys-Met-Gln-OH (Ac-QEMKMQ-OH) [DD15017]”, the “Relative level … (%)” value came out at 85.50 ± 1.74%.
In the case of “Ac-Ser-Gln-Glu-Met-Arg-Met-Gln-Thr-NH2 (Ac-SQEMRMQT-NH2) [DD15050]”, the “Relative level … (%)” value was found to be 72.44 ± 3.87%.
In the case of “Myr-Gln-Glu-Met-Arg-Met-Gln-NH2 (Myristoyl-QEMRMQ-NH2) [DD15052]” it was 92.94 ± 1.35%; in that of “Palm-Gln-Glu-Met-Arg-Met-Gln-OH (Palmitoyl-QEMRMQ-OH) [DD15003]”, 76.38 ± 7.00%; in that of “Ac-Gln-Gln-Met-Arg-Met-Gln-OH (Ac-QQMRMQ-OH) [DD15014]”, 80.06 ± 3.47%.
In the case of “Myr-Glu-Glu-Met-Arg-Met-Gln-OH (Myristoyl-EEMRMQ-OH; SMILES CCCCCCCCCCCCCC(=O)N[C@@H](CCC(=O)O)C(=O)N[C@@H](CCC(=O)O)C(=O)N[C@@H](CCSC)C(=O)N[C@@H](CCCNC(=N)N)C(=O)N[C@@H](CCSC)C(=O)N[C@@H](CCC(N)=O)C(=O)O) [DD15011]” it was 73.29 ± 4.37%.
Take “Ac-Gln-Glu-Met-Arg-Met-Glu-OH (Ac-QEMRME-OH) [DD15020]”: the “Relative level … (%)” value turned out to be 62.43 ± 0.89%.
In the case of “H-Gln-Glu-Met-Arg-Ile-Gln-NH2 (H-QEMRIQ-NH2) [DD15019]” it was 67.00 ± 2.89%; in that of “Ac-Asp-Gln-Met-Arg-Met-Gln-OH (Ac-DQMRMQ-OH) [DD15053]”, 58.64 ± 0.04%; in that of “H-Gln-Glu-Met-Arg-Met-Gln-OH (H-QEMRMQ-OH) [DD15002]”, 89.75 ± 0.69%.
As for “Ac-Asp-Glu-Met-Arg-Met-Gln-OH (Ac-DEMRMQ-OH) [DD15012]”, the figure is 71.05 ± 3.82%; as for “H-Gln-Asp-Met-Arg-Met-Asn-NH2 (H-QDMRMN-NH2) [DD15025]”, 86.95 ± 0.55%; as for “Ac-Gln-Glu-Met-Lys-Leu-Gln-OH (Ac-QEMKLQ-OH) [DD15024]”, 87.92 ± 1.32%.
In the case of “Ac-Gln-Glu-Met-Arg-Met-Gln-NH2 (Ac-QEMRMQ-NH2) [DD14023]” it was 87.03 ± 2.65%; in that of Ac-QEM[Orn]MQ-OH [DD15022], 75.41 ± 2.25%; in that of “H-Gln-Glu-Met-Arg-Leu-Gln-NH2 (H-QEMRLQ-NH2) [DD15055]”, 67.03 ± 0.23%.
For “Ac-Glu-Gln-Met-Arg-Met-Gln-OH (Ac-EQMRMQ-OH) [DD15054]”, the “Relative level … (%)” value amounted to 72.50 ± 2.88%.
In the case of “Ac-Gln-Glu-Met-Arg-Met-Gln-NHC6H13 (Ac-QEMRMQ-NHHex) [DD15004]”, the “Relative level … (%)” value was 89.03 ± 5.37%.
For the substance “Ac-Gln-Asp-Met-Arg-Met-Gln-NHC6H13 (Ac-QDMRMQ-NHHex; SMILES CCCCCCNC(=O)[C@H](CCC(N)=O)NC(=O)[C@H](CCSC)NC(=O)[C@H](CCCNC(=N)N)NC(=O)[C@H](CCSC)NC(=O)[C@H](CC(=O)O)NC(=O)[C@H](CCC(N)=O)NC(C)=O) [DD15013]”, the “Relative level … (%)” value is on record as 84.32 ± 6.96%.
In the case of “Ac-Glu-Glu-Met-Arg-Met-Gln-OH (Ac-EEMRMQ-OH) [DD15051]” it was 92.26 ± 1.61%; in that of “Ac-Pro-Gln-Glu-Met-Arg-Met-Gln-OH (Ac-PQEMRMQ-OH) [DD15045]”, 90.71 ± 4.78%.
As for “Ac-Gln-Asp-Met-Lys-Met-Asn-OH (Ac-QDMKMN-OH) [DD15027]”, the figure is 78.47 ± 0.74%; as for “Ac-Asn-Glu-Ile-Arg-Val-Gln-OH (Ac-NEIRVQ-OH) [DD15026]”, 77.60 ± 5.43%.
As for “Ac-Gln-Glu-Met-Arg-Met-Asn-OH (Ac-QEMRMN-OH) [DD15056]”, the figure is 72.43 ± 1.39%; as for “Ac-Gln-Glu-Met-Arg-Met-Gln-Thr-NH2 (Ac-QEMRMQT-NH2) [DD15047]”, 77.67 ± 9.10%; as for “Ac-Gln-Glu-Met-Arg-Met-Gln-Val-Tyr-OH (Ac-QEMRMQVY-OH) [DD15049]”, 80.09 ± 7.49%.
As for “Palm-Gln-Glu-Leu-Arg-Met-Gln-OH (Palmitoyl-QELRMQ-OH; SMILES CCCCCCCCCCCCCCCC(=O)N[C@@H](CCC(N)=O)C(=O)N[C@@H](CCC(=O)O)C(=O)N[C@@H](CC(C)C)C(=O)N[C@@H](CCCNC(=N)N)C(=O)N[C@@H](CCSC)C(=O)N[C@@H](CCC(N)=O)C(=O)O) [DD15015]”, the “Relative level … (%)” value worked out at 14.07 ± 0.28%.
Take “H-Gln-Glu-Ile-Arg-Met-Gln-NH2 (H-QEIRMQ-NH2) [DD15016]”: the “Relative level … (%)” value amounted to 87.63 ± 4.46%.
Turning to “Ac-Glu-Glu-Ile-Arg-Met-Gln-NHC16H33 (Ac-EEIRMQ-NHhexadecyl; SMILES CCCCCCCCCCCCCCCCNC(=O)[C@H](CCC(N)=O)NC(=O)[C@H](CCSC)NC(=O)[C@H](CCCNC(=N)N)NC(=O)[C@@H](NC(=O)[C@H](CCC(=O)O)NC(=O)[C@H](CCC(=O)O)NC(C)=O)[C@@H](C)CC) [DD15023]”, the “Relative level … (%)” value worked out at 74.48 ± 3.34%.
